The subject of data set [1] is Female Sprague-Dawley rats. Particulars: for GFAP levels / SBDP150 levels / UCH-L1 levels: biofluid, 30, 60, 90, 120 minutes following dosing. As for the experimental part: Acute oral In vivo drug candidate screening for neurotoxicity. […] A total of four to eight animals of are used for each dose level investigated.
At 30, 60, 90, and 120 minutes following dosing, the rats are sacrificed by decapitation and blood is obtained by cardiac puncture. The levels of biofluid UCH-L1 and SBDP 150 and GFAP are analyzed by sandwich ELISA or western blot by using UCH-L1 and SBDP 150 and GFAP specific antibodies.

Data set [2] concerns Mouse, rat cortical or hippocampal primary neurons. Put plainly: In vitro drug candidate screening for neurotoxicity (ELISA of cell lysates). Type of data set: cell-based. Conditions: primary neurons 21 DIV; Glutamate 0.01 to 1000 μM for 30 minutes, H2O2 0.001 to 1000 μM for 24 hours; lysates by ELISA. As to the method: In vitro drug candidate screening for neurotoxicity. Mouse, rat cortical or hippocampal primary neurons are cultured for 21 DIV, and the dose dependent responses of drugs are investigated. Cultured cells are exposed to various concentrations of: Glutamate (0.01 to 1000 μM) in 10 μM glycine both in HBSS; B) 0.01 to 100 μM Kainate in culture media; C) H2O2 (0.001 to 1000 μM) in culture media; C) Zinc (0.01 to 1000 μM) in culture media; D) U0126 (0.001 to 100 μM) in culture media; and E) and equal volume of culture media as a control. Glutamate treatment is performed for 30 minutes after which the cells are washed and the HBSS is replaced with culture media and analyzed. The remaining candidates are treated for 24 hours and analyzed. The levels of intracellular UCH-L1 and SBDP 145 are analyzed following cell lysis and screening of the lysates by ELISA using anti-UCH-L1 and SBDP 145 specific antibodies. The levels of UCH-L1 are increased following exposure particularly to Glutamate and H2O2.

For the molecule `N.N.[Cl][Pt][Cl]` [Cisplatin, cisplatin], in data set [1], the GFAP levels result is “increase”, the SBDP150 levels result is listed as “increase” and the UCH-L1 levels entry is listed as “increase”.

As to `N[C@@H](CCC(=O)O)C(=O)O` [Glutamate], in data set [2], the “levels of intracellular UCH-L1” value was “increased”.

`OO` [H2O2]: the “levels of intracellular UCH-L1” value in data set [2] is listed as “increased”.

Turning to `CN1CC=C(c2ccccc2)CC1` [MPTP], in data set [1], the GFAP levels entry is “increase”, the SBDP150 levels result is “increase” and the UCH-L1 levels entry is listed as “increase”.

`C[C@]12N[C@H](Cc3ccccc31)c1ccccc12` [dizocilpine]: in data set [1], the GFAP levels entry was “increase”, the SBDP150 levels entry was “increase” and the UCH-L1 levels result is “increase”.

As to `C=C(C)[C@H]1CN[C@H](C(=O)O)[C@H]1CC(=O)O` [kainic acid], in data set [1], the GFAP levels result was “increase”, the SBDP150 levels entry was “increase” and the UCH-L1 levels result was “increase”.

Take `CN[C@@H](C)Cc1ccccc1` [methamphetamine]: in data set [1] (rat, in vivo), the “CSF concentration of GFAP” value is on record as “increase”, the “CSF concentration of SBDP 150” value is “increase” and the “CSF concentration of UCH-L1” value is given as “increase”.

For the origin of these results see patent US20170315136A9, “BIOMARKER ASSAY OF NEUROLOGICAL CONDITION” (priority 2009, published 2017).
